The results in this text go back to patent US11945862B2, “Compositions and methods for antibody production” (ImmunoGen, Inc., priority 2017, dated 2024).

The test system of one series is CHO cells. The experiment in a line: Viability of CHO cells after 1 day treatment. As to conditions: 0.75 mM, control 98.9%.
Series [1] has as its system Humanized anti-folate receptor 1 (FOLR1) IgG1. The experiment in a line: Antibody disulfide reduction by damaged CHO cell supernatant (freeze-thaw), thiol per antibody by Ellman's assay. The class given is biochemical. Particulars: for thiol/antibody ratio: about 2.5 hours, control 5.5; for thiol per antibody: 2.2 hours. As to the method: (§1) For all of the examples described below, cell damage was simulated by multiple freeze-thaw cycles of cells, by addition of RIPA buffer (50 mM Tris-HCl, pH 7.4, 1% NP-40, 0.5% sodium deoxycholate, 0.1% sodium dodecylsulfate), or by using microfluidizer. This damaged cell supernatant or lysate was then incubated with a buffered solution containing antibody with or without the anti-reduction agent being tested, following which the extent of the antibody-disulfide reduction was measured using Ellman's assay for thiol (P. W. Riddles, R. L. Blakeley, and B. Zerner, Methods Enzymol., 91, 49-60, 1983) or by non-reducing SDS protein LabChip analysis. The total thiol level present in the mixture of damaged cell supernatant/lysate was measured initially.
(§2) A simulated, damaged CHO cell suspension was prepared using 300 million CHO cells per ml phosphate buffered saline (PBS), which was subjected to three freeze-thaw cycles under vacuum, followed by pelleting of cell debris by centrifugation, and storage of the supernatant at −80° C.
The concentration of thiol in the suspension of damaged CHO cells was measured as 4 mM using DTNB ((5,5′-dithiobis(2-nitrobenzoic acid); Ellman's reagent). Humanized anti-folate receptor 1 (FOLR1) IgG1 (1 mg) was immobilized on 0.05 ml of Protein A bead (RepliGen) and then treated with pre-mixed 0.5 ml PBS and 0.1 ml damaged CHO cell supernatant. The concentration of thiol in this mixture was 0.67 mM.
The sample was rotated for about 2.2 hours at ambient temperature, following which the supernatant was removed and the beads were washed with PBS four times (1.5 ml each). The thiol content of the immobilized antibody on the beads was then analyzed by the addition of 0.6 ml of PBS containing 0.5 mM DTNB, rotation for about 10 minutes, centrifugation, and measurement of the absorbance of the supernatant at 412 nm.
Methylene blue was then tested at different concentrations to determine whether it could protect against disulfide bond reduction during the incubation of antibody with damaged CHO cell supernatant. FIG. 1 is a graph showing the results of immobilized 1 mg humanized IgG1 with pre-mixed 0.5 ml PBS and 0.1 ml damaged CHO cell supernatant in the presence of methylene blue, rotation for 2.2 hours at ambient temperature, and a similar thiol analysis of immobilized antibody as above. Unexpectedly, very low concentrations of methylene blue (0.025 and 0.05 mM) protected against the reduction of antibody disulfide bonds.
In a similar experiment, a sample containing 1 mg immobilized antibody was incubated with a mixture of damaged CHO cell supernatant and 0.05 mM methylene blue for 2.2 hours, followed by washing of beads as above, after which the antibody was eluted from Protein A bead using 100 mM acetic acid containing 150 mM NaCl, neutralized to pH 7 by addition of 1.25 M […] solution. Using an aliquot of the neutralized eluted antibody sample, the thiol per antibody was measured as 0.002 thiol per antibody using DTNB, thus indicating the protection against antibody disulfide reduction by methylene blue. […]

The next series relates to humanized N901 antibody. The experiment in a line: Antibody disulfide reduction by CHO cell lysate (RIPA buffer), thiol/antibody by Ellman's assay. The class given is biochemical. As to conditions: for thiol/antibody ratio: 3 hours, lysate thiol 2.1 mM, control 5.74. As to the method: as §1
The effect of 1,2-naphthoquinone-4-sulfonic acid (NQS) on antibody-disulfide reduction was studied by incubating 1,2-naphthoquinone-4-sulfonic acid at several concentrations with antibody and damaged CHO lysate. The damaged CHO cell lysate was generated by the addition of 0.5 ml RIPA buffer (50 mM Tris-HCl, pH 7.4, 1% NP-40, 0.5% sodium deoxycholate, 0.1% sodium dodecylsulfate) to 100 million CHO cells. The thiol concentration in CHO cell lysate was measured by Ellman's assay as 2.1 mM.
Each sample contained pre-mixed 0.5 ml RIPA buffer (50 mM Tris-HCl, pH 7.4, 1% NP-40, 0.5% sodium deoxycholate, 0.1% sodium dodecylsulfate) with 1 mg humanized N901 antibody, with or without 1,2-naphthoquinone-4-sulfonic acid (25 micromolar, or 50 micromolar, or 100 micromolar), which was added to a cell pellet of 100 million CHO cells, and the resuspended cells were incubated at ambient temperature for 30 minutes, following which the cell debris were pelleted by centrifugation (16,000 g, 5 min). The supernatant from each sample was added to 50 microliter immobilized-Protein A beads (RepliGen) and rotated at ambient temperature for 3 hours, after which the supernatant was removed and the beads washed with PBS.
The thiol content of the immobilized antibody was determined by the addition of 0.6 ml of PBS containing 0.5 mM DTNB (Ellman's reagent) to the beads, rotation for about 10 minutes, centrifugation, and absorbance measurement of supernatant at 412 nm.
The effect of anthraquinone-2-sulfonic acid (AQS) on antibody-disulfide reduction was studied during co-incubation of anthraquinone-2-sulfonic acid with antibody and damaged CHO lysate. Each sample contained pre-mixed 1 ml RIPA buffer (50 mM Tris-HCl, pH 7.4, 1% NP-40, 0.5% sodium deoxycholate, 0.1% sodium dodecylsulfate) with 1 mg humanized N901 antibody, with or without 0.2 mM anthraquinone-2-sulfonic acid (AQS), which was added to a cell pellet of 100 million CHO cells, and the resuspended cells were incubated at ambient temperature for 30 minutes, following which the cell debris were pelleted by centrifugation (16,000 g, 5 min). The thiol concentration in CHO cell lysate was 1 mM (Ellman's assay).
The supernatant from each sample was added to 50 microliter immobilized-Protein A beads (RepliGen) and rotated at ambient temperature for 3 hours, after which the supernatant was removed and the beads washed with PBS. The thiol content of the immobilized antibody was determined by the addition of 0.6 ml of PBS containing 0.5 mM DTNB (Ellman's reagent) to the beads, rotation for about 10 minutes, centrifugation, and absorbance measurement of supernatant at 412 nm.
In another experiment, 1 mg huN901 antibody was incubated with CHO lysate, with or without 0.4 mM anthraquinone-2-sulfonic acid for 4 hours. The mixture was then analyzed for thiol/antibody as above.
The thiol concentration in CHO cell lysate was 1 mM (Ellman's assay).
The supernatant from each sample was added to 50 microliter immobilized-Protein A beads (RepliGen) and rotated at ambient temperature for 3 hours, after which the supernatant was removed and the beads washed with PBS. […]

In series [2] the test system is Humanized FOLR1 IgG1 antibody. As to the kind of experiment: Antibody disulfide reduction by CHO cell lysate (RIPA buffer), thiol per antibody by Ellman's assay. Particulars: 5 mM agent, 100 mM phosphate buffer pH 7, 2 hours. The class given is biochemical.
Procedure: Lysates of CHO cells (˜60 million cells lysed in 0.6 ml RIPA buffer and clarified by centrifugation) were added to each of these mixtures. The pH values of all samples were adjusted to 7. […] The samples were incubated with 200 microliter immobilized-Protein A beads (RepliGen) and rotated at ambient temperature for 3 hours, after which the supernatant was removed and the beads washed with PBS. The thiol content of the immobilized antibody was determined by the addition of 0.2 ml of PBS containing 0.5 mM DTNB (Ellman's reagent) to the beads, rotation for about 10 minutes, centrifugation, and absorbance measurement of the supernatant at 412 nm.
The pH values of all samples were adjusted to 7. The samples were incubated with 200 microliter immobilized-Protein A beads (RepliGen) and rotated at ambient temperature for 3 hours, after which the supernatant was removed and the beads washed with PBS. The thiol content of the immobilized antibody was determined by the addition of 0.2 ml of PBS containing 0.5 mM DTNB (Ellman's reagent) to the beads, rotation for about 10 minutes, centrifugation, and absorbance measurement of the supernatant at 412 nm.
To test the effect of L-cystine bis(t-butyl ester) (CDBE) on protecting antibody disulfide bonds from reduction by CHO lysate, humanized FOLR1 IgG1 antibody (2 mg) was incubated with CHO lysate in RIPA buffer (0.6 ml lysate of 60 million CHO cells in 0.6 ml RIPA buffer, clarified by centrifugation) without or with 0.5 or 1 mM CDBE. The samples were rotated at ambient temperature with 200 microliter immobilized-Protein A beads (RepliGen) for 2 hours, after which the supernatant was removed and the beads washed with PBS. The thiol content of the immobilized antibody was determined by the addition of 0.2 ml of PBS containing 0.5 mM DTNB (Ellman's reagent) to the beads, centrifugation, and absorbance measurement of the supernatant at 412 nm.
The samples were rotated at ambient temperature with 200 microliter immobilized-Protein A beads (RepliGen) for 2 hours, after which the supernatant was removed and the beads washed with PBS. The thiol content of the immobilized antibody was determined by the addition of 0.2 ml of PBS containing 0.5 mM DTNB (Ellman's reagent) to the beads, centrifugation, and absorbance measurement of the supernatant at 412 nm.
Series [3] relates to Humanized N901 (Anti-CD56 IgG1). The experiment in a line: Antibody disulfide reduction by damaged CHO cell supernatant (freeze-thaw), thiol per antibody by Ellman's assay. In kind it is biochemical. Particulars: for thiol per antibody: about 1.5 hours, control 6.4; for thiol per antibody / protection toward antibody-disulfide reduction: total thiol 0.8 mM; for protection toward antibody-disulfide reduction: 0.2 and 0.1 mM agent; for thiol/antibody ratio: about 2.5 hours, total thiol 0.4 mM, control 1.99. As to the method:
as §1, §2
Humanized N901 (Anti-CD56 IgG1; 1 mg) was immobilized on 0.05 ml of Protein A bead (RepliGen) and then treated with pre-mixed 0.4 ml PBS and 0.1 ml damaged CHO cell supernatant (described in Example 1) with or without the addition of coenzyme Q analogs. The concentration of thiol in these mixtures was 0.8 mM.
The samples were rotated for about 1.5 hours at ambient temperature, following which the supernatant was removed and the beads washed with PBS three times. The thiol content of the immobilized antibody on the beads was then analyzed by the addition of 0.6 ml of mixture of PBS and 0.5 mM DTNB, rotation for about 10 minutes, centrifugation, and measurement of the absorbance of the supernatant at 412 nm. The number of thiol residues per antibody molecule after incubation with damaged CHO cell supernatant (without any coenzyme Q analog) was measured as 6.4 thiol/antibody.
Humanized N901 IgG1 (1 mg) was immobilized on 0.05 ml of Protein A bead (RepliGen) and treated with pre-mixed 0.45 ml PBS and 0.05 ml damaged CHO cell supernatant with or without 0.1 mM and 0.2 mM disulfiram (also named as tetraethylthiuram disulfide; added using a stock solution of disulfiram in DMSO). The concentration of total thiol (derived from damaged cells) in this mixture was 0.4 mM.
The samples were rotated for about 2.5 hours at ambient temperature, then centrifuged to pellet beads, following which the supernatants were removed and the beads washed with PBS four times. The thiol content of the immobilized antibody on the beads was then analyzed by the addition of 0.6 ml PBS containing 0.5 mM DTNB to the beads, rotation for about 30 minutes, centrifugation, and measurement of the absorbance of the supernatant at 412 nm.

Series [4] is described as follows: Redox potential of antibody solution with media additive over a range of DTT concentrations. The class given is physicochemical. Particulars: 1 mM additive, DTT 0.34 μM to 170 μM, 37° C., 1 h.
For the next series, the system named is M9346A antibody. In kind it is biochemical. Particulars: 1 mM additive, conditions where control without additive was 100% fragmented. As to the method:
Antibody reduction was induced in a biological assay by adding cell lysate to purified monoclonal antibody. […]. Increasing amounts of CHO cell lysate were added to mimic different percentages of cell lysis, ranging from […]. Fresh NADPH was added to a concentration of 400 μM. The mixtures were incubated in a water bath at 37° C. for 1 h. Free thiols were alkylated by addition of 10% (v/v) of 50 mM N-ethyl-maleimide (NEM) solution. Samples were analyzed by non-reduced sodium dodecyl sulfate denaturing capillary electrophoresis (NR-CE-SDS).
To test the capacity for protection further, the stringency of the assay was increased. […].

As for `O=C(O)CCCCC1CCSS1` (racemic) [lipoic acid, 1,2-dithiolane-3-pentanoic acid], the “viability of CHO cells” value in the series on CHO cells was found to be 98.1%. In addition, the thiol/antibody ratio in series [1] (0.5 mM agent, total thiol 0.67 mM) worked out at 1.88; in series [1] (2 mM agent, total thiol 0.67 mM) it was 1.08.
On to `CCOC(=O)[C@@H](N)CSSC[C@H](N)C(=O)OCC` [CDEE, L-cystine diethyl ester], for which the thiol/antibody with humanized N901 antibody (0.75 mM agent, 4° C. overnight, control 2.29) turned out to be 1.02 thiol/antibody.
As to `CC(=O)N[C@@H](CSSC[C@H](NC(C)=O)C(=O)O)C(=O)O` [Di-N-acetyl L-cystine], the “decrease in disulfide reduction compared to the control” value in series [2] is given as “about 64%”. The thiol per antibody entry in series [2] (control 1.16) was “about 0.42 thiol per antibody”.
In the case of `O=C1C=C(S(=O)(=O)O)c2ccccc2C1=O` [NQS, 1,2-naphthoquinone-4-sulfonic acid], the thiol/antibody ratio with humanized N901 antibody (0.025 mM agent) came to 3.4; with humanized N901 antibody (0.05 mM agent), 2.2; in the series with humanized N901 antibody (0.1 mM agent), 1.25.
Take `COC1=C(OC)C(=O)C(C)=CC1=O` [coenzyme Q0, 2,3-dimethoxy-5-methyl-p-benzoquinone]: the thiol per antibody in series [3] (0.1 mM agent) was 0.63 thiol per antibody; in series [3] (0.2 mM agent) it was 0.34 thiol per antibody.
Turning to `COC1=C(OC)C(=O)C(C/C=C(\C)CCC=C(C)C)=C(C)C1=O` [coenzyme Q2, 2,3-dimethoxy-5-methyl-6-geranyl-p-benzoquinone], in series [3], the “protection toward antibody-disulfide reduction” value is “decreased antibody disulfide-reduction”.
Turning to `COC1=C(OC)C(=O)C(C/C=C(\C)CC/C=C(\C)CC/C=C(\C)CC/C=C(\C)CC/C=C(\C)CC/C=C(\C)CC/C=C(\C)CC/C=C(\C)CC/C=C(\C)CCC=C(C)C)=C(C)C1=O` [coenzyme Q10, reference compound], in series [3], the “protection toward antibody-disulfide reduction” value was “did not show significant protection”.
Consider `N[C@@H](CSSC[C@H](N)C(=O)O)C(=O)O` [cystine], for which, in series [4], the “modulation of redox potential” value was “step-wise modulation of redox potential”.
With `CCN(CC)C(=S)SSC(=S)N(CC)CC` [disulfiram, tetraethylthiuram disulfide, reference compound], the figures for the thiol/antibody ratio in series [3] (0.1 mM agent) and in series [3] (0.2 mM agent) were 0.14 and 0.03, respectively.
As for `CN(C)c1ccc2nc3ccc(N(C)C)cc3[s+]c2c1` [methylene blue, Methylene blue], the thiol per antibody was 0.38 thiol per antibody in series [1] (0.025 mM agent, total thiol 0.67 mM, control 4.2); 0.002 thiol per antibody in series [1] (0.05 mM agent, antibody eluted from Protein A bead and neutralized); 0.33 thiol per antibody in series [1] (0.05 mM agent, total thiol 0.67 mM, control 4.2).
On to `O=S(=O)([O-])[O-].[Zn+2]` [zinc], for which the “protection at increased assay stringency” value in the series with M9346A antibody is “protective of disulfide reduction”.
Regarding oxidized glutathione [GSSG], in the series with humanized N901 antibody (2 mM GSSG alone, 2.5 hours, lysate thiol 1 mM, control 5.63), the thiol/antibody is 0.98 thiol/antibody.
